Results as given in patent US12194039B2, “Methods of treating heart failure by administering omecamtiv mecarbil” (Cytokinetics, Inc., priority 2020, dated 2025).

Tests used:
[1] = target: T1, CYP2C8 (Homo sapiens, UniProt P10632); experiment: Clinical studies and physiologically based pharmacokinetic modeling of OM as perpetrator; assay type: in vivo; design: from tissue; settings: clinical studies and PBPK modeling; result in words
T1 sequence (P10632 1-490): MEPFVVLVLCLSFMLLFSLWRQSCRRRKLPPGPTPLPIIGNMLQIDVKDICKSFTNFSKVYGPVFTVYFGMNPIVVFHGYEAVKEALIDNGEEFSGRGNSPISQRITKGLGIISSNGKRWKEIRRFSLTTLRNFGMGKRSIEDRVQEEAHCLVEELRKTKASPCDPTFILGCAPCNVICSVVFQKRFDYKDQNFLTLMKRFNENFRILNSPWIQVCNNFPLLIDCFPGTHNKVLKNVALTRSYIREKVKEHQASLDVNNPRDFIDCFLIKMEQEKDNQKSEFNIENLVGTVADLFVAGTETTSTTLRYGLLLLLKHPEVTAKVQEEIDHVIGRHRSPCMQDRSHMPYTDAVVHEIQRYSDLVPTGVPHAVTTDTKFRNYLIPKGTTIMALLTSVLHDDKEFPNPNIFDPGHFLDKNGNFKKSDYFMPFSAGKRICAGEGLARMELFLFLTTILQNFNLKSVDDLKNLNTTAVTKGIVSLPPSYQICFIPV
Description: OM may be administered with drugs that are substrates of CYP3A4, CYP2C8, P-gp or BCRP.

[2] = test system: patients with heart failure and reduced ejection fraction; assay type: in vivo
Experimental: The study was event-driven and was ended after approximately 1590 cardiovascular deaths. The overall type I error was 0.05 for 2-sided testing across primary and secondary endpoints with control for multiplicity testing. A single interim efficacy analysis was conducted after approximately two-thirds of the targeted number of cardiovascular deaths accrued with a one-sided alpha of 0.0005. Given the negligible impact of this interim on the final alpha, the full 0.05 was used in the final analysis consistent with the Haybittle-Peto approach. […] The mean differences in the KCCQ TSS change from baseline to Week 24 were estimated using a mixed model stratified by randomization setting (inpatient and outpatient) containing baseline TSS value, region, baseline eGFR, scheduled visit, treatment group, and the interaction of treatment group with scheduled visit. A joint omnibus F-test was used to test the treatment effect for the KCCQ TSS. An overall pooled estimate for the KCCQ TSS treatment difference to placebo were conducted using a likelihood based approach. The prespecified safety analyses included: serious adverse events; adverse events associated with discontinuation of study treatment; “adverse events of interest” i.e., ventricular arrhythmias requiring treatment and positively adjudicated major cardiac ischemic events (including myocardial infarction, hospitalization for unstable angina, coronary revascularization). […] All analyses were performed with the use of SAS software, version 9.4 (SAS Institute).
Excluding the discontinuations due to death, the study drug was stopped in 847 patients (20.6%) receiving omecamtiv mecarbil and 897 patients (21.9%) receiving placebo with 371 (9.0%) in the omecamtiv mecarbil group and 382 (9.3%) receiving placebo discontinuing due to an adverse event. Patients receiving omecamtiv mecarbil had no change in potassium or creatinine concentrations during the course of the trial compared to placebo. Patients receiving omecamtiv mecarbil had increased median concentrations of high sensitivity troponin-I from baseline of 0.004 ng/mL (lower limit of quantification, 0.010 ng/mL) compared to placebo at week 24. […] Ventricular arrhythmias were similar in patients receiving omecamtiv mecarbil compared to placebo (Table 3).
Continuous variables were summarized as means±standard deviations (SD) or medians and first and third quartiles (Q1, Q3), as appropriate. Categorical variables were summarized as counts and percentages. […] The change from baseline on NT-proBNP analysis included all participants who underwent randomization. The difference column is the exponentiated change from baseline on the log scale using a mixed model containing the log baseline value, region, baseline eGFR, scheduled visit, treatment group and interaction of treatment with scheduled visit.
Table 4 summarizes the adverse events reported in 1% or more of patients.

[3] = treatment-emergent serious adverse event, preferred term, N = 4110

Which “Inhibition of CYP2C8” value [1] does the source give for COC(=O)N1CCN(Cc2cccc(NC(=O)Nc3ccc(C)nc3)c2F)CC1 [omecamtiv mecarbil] here?
Its value is “weak inhibitor”.

And the “Acute kidney injury, %” value ([2]; human, in vivo)?
Its value is “(3.1) %”.

What about the “Acute myocardial infarction, %” value ([2]; human, in vivo) of the same compound?
The value was “(1.7) %”.

What about the “Adjudicated major cardiac ischemic events, no.” value ([2]; human, in vivo) of the same compound?
The value was 200 no.

And the “Adjudicated major cardiac ischemic events, relative risk” value ([2]; human, in vivo)?
The value was 1.06.

And the “Angina pectoris, %” value ([2]; human, in vivo)?
Its value is “(1.0) %”.

And the “Angina unstable, %” value ([2]; human, in vivo)?
The value was “(1.5) %”.

What about the “Atrial fibrillation, %” value ([2]; human, in vivo) of the same compound?
The value was “(2.3) %”.

What about the “Cardiac arrest, %” value ([2]; human, in vivo) of the same compound?
Its value is “(1.2) %”.

What about the “Cardiac failure acute, %” value ([2]; human, in vivo) of the same compound?
The value was “(5.2) %”.

And the “Cardiac failure chronic, %” value ([2]; human, in vivo)?
Its value is “(3.8) %”.

And the “Cardiac failure congestive, %” value ([2]; human, in vivo)?
The value was “(3.6) %”.

And the “Cardiac failure, %” value ([2]; human, in vivo)?
The value was “(24.0) %”.

And the “Cardiogenic shock, %” value ([2]; human, in vivo)?
Its value is “(1.8) %”.

And the “Chronic kidney disease, %” value ([2]; human, in vivo)?
The value was “(0.9) %”.

What about the “Chronic obstructive pulmonary disease, %” value ([2]; human, in vivo) of the same compound?
The value was “(1.5) %”.

What about the “Coronary revascularization (adjudicated), %” value ([2]; human, in vivo) of the same compound?
Its value is “(2.8) %”.

What about the “Coronary revascularization (adjudicated), no.” value ([2]; human, in vivo) of the same compound?
The value was 115 no.

What about the “Drug discontinuation due to an adverse event, no.” value ([2]; human, in vivo) of the same compound?
Its value is 371 no.

And the “Drug discontinuation due to an adverse event, relative risk” value ([2]; human, in vivo)?
The value was 0.97.

What about the “Hospitalized for unstable angina (adjudicated), %” value ([2]; human, in vivo) of the same compound?
The value was “(0.6) %”.

And the “Hospitalized for unstable angina (adjudicated), no.” value ([2]; human, in vivo)?
Its value is 25 no.

What about the “Hypotension, %” value ([2]; human, in vivo) of the same compound?
The value was “(1.2) %”.

And the “Myocardial infarction (adjudicated major cardiac ischemic event), no.” value ([2]; human, in vivo)?
Its value is 122 no.

What about the “Myocardial infarction, %” value ([2]; human, in vivo) of the same compound?
The value was “(0.9) %”.

What about the “Pneumonia, %” value ([2]; human, in vivo) of the same compound?
Its value is “(4.2) %”.

And the “Renal failure, %” value ([2]; human, in vivo)?
Its value is “(0.6) %”.

And the “Renal impairment, %” value ([2]; human, in vivo)?
The value was “(0.6) %”.

And the “Respiratory tract infection, %” value ([2]; human, in vivo)?
Its value is “(0.4) %”.

And the “Sepsis, %” value ([2]; human, in vivo)?
The value was “(1.2) %”.

What about the “Septic shock, %” value ([2]; human, in vivo) of the same compound?
Its value is “(0.9) %”.

What about the “Serious adverse events (subjects reporting treatment-emergent serious adverse events), %” value ([2]; human, in vivo) of the same compound?
The value was “(57.7) %”.

What about the “Serious adverse events (subjects reporting treatment-emergent serious adverse events), no.” value ([2]; human, in vivo) of the same compound?
The value was 2373 no.

What about the “Serious adverse events, relative risk” value ([2]; human, in vivo) of the same compound?
Its value is 0.97.

What about the “Serious adverse ventricular arrhythmia requiring treatment, %” value ([2]; human, in vivo) of the same compound?
The value was “(2.9) %”.

What about the “Serious adverse ventricular arrhythmia requiring treatment, no.” value ([2]; human, in vivo) of the same compound?
The value was 119 no.

And the “Serious adverse ventricular arrhythmia requiring treatment, relative risk” value ([2]; human, in vivo)?
The value was 0.93.

And the “Stroke, %” value ([2]; human, in vivo)?
Its value is “(1.8) %”.

What about the “Stroke, no.” value ([2]; human, in vivo) of the same compound?
The value was 76 no.

And the “Stroke, relative risk” value ([2]; human, in vivo)?
The value was 0.68.

What about the “Study drug stopped, % of patients” value ([2]; human, in vivo) of the same compound?
Its value is 20.6%.

And the “Study drug stopped, no. of patients” value ([2]; human, in vivo)?
Its value is 847 no.

And the “Syncope, %” value ([2]; human, in vivo)?
Its value is “(1.0) %”.

And the “Torsade de pointes/QT prolongation (narrow SMQ), %” value ([2]; human, in vivo)?
The value was “(4.3) %”.

What about the “Torsade de pointes/QT prolongation (narrow SMQ), no.” value ([2]; human, in vivo) of the same compound?
The value was 176 no.

And the “Torsade de pointes/QT prolongation (narrow SMQ), relative risk” value ([2]; human, in vivo)?
The value was 0.90.

What about the “Ventricular fibrillation, %” value ([2]; human, in vivo) of the same compound?
Its value is “(0.7) %”.

What about the “Ventricular tachyarrhythmias (narrow SMQ), %” value ([2]; human, in vivo) of the same compound?
Its value is “(7.1) %”.

What about the “Ventricular tachyarrhythmias (narrow SMQ), no.” value ([2]; human, in vivo) of the same compound?
The value was 290 no.

And the “Ventricular tachyarrhythmias (narrow SMQ), relative risk” value ([2]; human, in vivo)?
Its value is 0.95.

And the “Ventricular tachycardia, %” value ([2]; human, in vivo)?
The value was “(2.6) %”.

And the “lschaemic stroke, %” value ([2]; human, in vivo)?
Its value is “(0.9) %”.

And the “Death, %” value [2, 3]?
Its value is “(1.6) %”.

What about the “Sudden cardiac death, %” value [2, 3] of the same compound?
Its value is “(0.7) %”.

And the “Sudden death, %” value [2, 3]?
Its value is “(1.3) %”.
